From patent US20140228299A1, “PROPHYLACTIC AND THERAPEUTIC AGENT FOR NEUROLOGICAL DISEASES USING LIPOPROTEINS AND PROPHYLACTIC AND THERAPEUTIC METHOD FOR NEUROLOGICAL DISEASES” (National University Corporation Tokyo Medical and Dental …, priority 2011, published 2014)

Tests used:
[1] = molecular target: T1, complex of LRP1 and NMDA receptor (Rattus norvegicus, UniProt G3V928); assay: Immune precipitation of LRP1-NMDA receptor complex from RGC; type: cell-based; details: LP added to RGC culture, cells collected in 15 minutes; anti-NMDA receptor 2B immune precipitation
T1 construct: endogenous in cells
Experimental: LP was added to a culture liquid of the retinal glia cells and the cells were collected in 15 minutes, followed by the immune precipitation as will be described below. For the immune precipitation, a rabbit anti-NMDA receptor 2B antibody was used, and the Western blotting was performed for LRP1 and NMDA receptor 2B.
The immune precipitation was carried out in the manner as will be described below. Specifically, the co-immunoprecipitation was performed in accordance with procedures of May et al. (May et al., 2004) by using a mixed solution prepared by adding a RGC dissolved solution to a mixed solution of a complete EDTA-free protease inhibitor cocktail (Roche, Mannheim, Germany) and a PhosSTOP phosphatase inhibitor cocktail (Roche) and a mixture of 10 mM Tris-HCl (pH7.4), 150 mM NaCl, 1 mM MgCl2, 1 mM CaCl2 and 1% Triton X-100. RGC was washed once with HBSS and collected on a 96-well plate using 40 μl per well of a dissolving buffer. The dissolved solutions from wells 9-12 were combined in each group. The RGC dissolved solution was passed fifteen times through a 22-gauge needle and then centrifuged at 15,000×g for 15 minutes at 4° C. The resulting supernatant was pretreated at 4° C. for 1 hour with 40 μl of 50% equilibrated protein G-Sepharose (GE Healthcare, Buckinghamshire, UK), and the Sepharose beads were removed by centrifugation. […]

[2] = tested on: intracellular Ca2+ (LRP1 / NMDA receptor) in RGC; assay: Intracellular Ca2+ increase in RGC after glutamate+glycine (Fluo-8 fluorescence); type: cell-based, rat; details: E-LP 100 ng protein/mL, 15 minutes before 300 μM glutamate+10 μM glycine
Experimental: The inflow of calcium into RGC was confirmed in the manner as described below. Specifically, RGC was incubated on a microdish at least for 14 days, followed by incubation at 37° C. for 30 minutes using 3 μM Fluo-8 acetoxymethyl ester (AAT Bioquest, Sunnyvale, Calif.). The resulting cells were washed twice with 500 μl of the above HBSS, and 300 μM glutamate and 10 μM glycine were poured. The fluorescence images were taken at every 500 msec by ORCA-R2 digital camera (Hamamatsu Photonics, Hamamatsu, Japan) and analyzed by MetaFluor fluorescence ratio imaging software (Molecular Devices, Sunnyvale, Calif.).
RGC was labeled with Fluo-8 acetoxymethyl ester for 30 minutes, and Glu (300 μM glutamate+10 μM glycine) was added thereto. Fluorescent ratio images were as represented by colors indicated by the color index shown at the lower side of FIG. 12A. The color was represented as Ratio 0 and Ratio 2 corresponding to the base fluorescent intensity (Ratio 1) before Glu stimulation. The panels on the left and right sides indicate Glu and Glu+E-LP, respectively. […] The scale bar is 80 μm.
FIGS. 12B and C show variations of fFuo-8 fluorescence represented by ΔF/F0. In the figures, F0 indicates the base fluorescence intensity before Glu stimulation. * and **: p<0.005 and p<0.0001 (Glu vs. Glu+E-LP). […]

[3] = tested on: α2-macroglobulin released from glia cells; assay: α2-macroglobulin released from primary cultured glia cells (immunoblotting of culture supernatant); type: cell-based; details: 100 or 1,000 ng/mL; culture supernatant after 24 hours
Experimental: This example was to examine the amount of α2-macroglobulin released from the glia cells. To a culture mixture of the glia cells obtained by the primary culture, human lipoprotein containing apoE (100 or 1,000 ng/mL) was added, followed by collection of a culture supernatant after 24 hours. After the resulting supernatant was subjected to SDS-PAGE, it was detected by the immunoblotting using anti-α2-macroglobulin antibody. As a result, a decrease in the amount of α2-macroglobulin released from the glia cells was observed by the addition of the human lipoprotein containing apoE (FIG. 18).

T1 sequence (G3V928 20-3944 limits assumed, one chain of several): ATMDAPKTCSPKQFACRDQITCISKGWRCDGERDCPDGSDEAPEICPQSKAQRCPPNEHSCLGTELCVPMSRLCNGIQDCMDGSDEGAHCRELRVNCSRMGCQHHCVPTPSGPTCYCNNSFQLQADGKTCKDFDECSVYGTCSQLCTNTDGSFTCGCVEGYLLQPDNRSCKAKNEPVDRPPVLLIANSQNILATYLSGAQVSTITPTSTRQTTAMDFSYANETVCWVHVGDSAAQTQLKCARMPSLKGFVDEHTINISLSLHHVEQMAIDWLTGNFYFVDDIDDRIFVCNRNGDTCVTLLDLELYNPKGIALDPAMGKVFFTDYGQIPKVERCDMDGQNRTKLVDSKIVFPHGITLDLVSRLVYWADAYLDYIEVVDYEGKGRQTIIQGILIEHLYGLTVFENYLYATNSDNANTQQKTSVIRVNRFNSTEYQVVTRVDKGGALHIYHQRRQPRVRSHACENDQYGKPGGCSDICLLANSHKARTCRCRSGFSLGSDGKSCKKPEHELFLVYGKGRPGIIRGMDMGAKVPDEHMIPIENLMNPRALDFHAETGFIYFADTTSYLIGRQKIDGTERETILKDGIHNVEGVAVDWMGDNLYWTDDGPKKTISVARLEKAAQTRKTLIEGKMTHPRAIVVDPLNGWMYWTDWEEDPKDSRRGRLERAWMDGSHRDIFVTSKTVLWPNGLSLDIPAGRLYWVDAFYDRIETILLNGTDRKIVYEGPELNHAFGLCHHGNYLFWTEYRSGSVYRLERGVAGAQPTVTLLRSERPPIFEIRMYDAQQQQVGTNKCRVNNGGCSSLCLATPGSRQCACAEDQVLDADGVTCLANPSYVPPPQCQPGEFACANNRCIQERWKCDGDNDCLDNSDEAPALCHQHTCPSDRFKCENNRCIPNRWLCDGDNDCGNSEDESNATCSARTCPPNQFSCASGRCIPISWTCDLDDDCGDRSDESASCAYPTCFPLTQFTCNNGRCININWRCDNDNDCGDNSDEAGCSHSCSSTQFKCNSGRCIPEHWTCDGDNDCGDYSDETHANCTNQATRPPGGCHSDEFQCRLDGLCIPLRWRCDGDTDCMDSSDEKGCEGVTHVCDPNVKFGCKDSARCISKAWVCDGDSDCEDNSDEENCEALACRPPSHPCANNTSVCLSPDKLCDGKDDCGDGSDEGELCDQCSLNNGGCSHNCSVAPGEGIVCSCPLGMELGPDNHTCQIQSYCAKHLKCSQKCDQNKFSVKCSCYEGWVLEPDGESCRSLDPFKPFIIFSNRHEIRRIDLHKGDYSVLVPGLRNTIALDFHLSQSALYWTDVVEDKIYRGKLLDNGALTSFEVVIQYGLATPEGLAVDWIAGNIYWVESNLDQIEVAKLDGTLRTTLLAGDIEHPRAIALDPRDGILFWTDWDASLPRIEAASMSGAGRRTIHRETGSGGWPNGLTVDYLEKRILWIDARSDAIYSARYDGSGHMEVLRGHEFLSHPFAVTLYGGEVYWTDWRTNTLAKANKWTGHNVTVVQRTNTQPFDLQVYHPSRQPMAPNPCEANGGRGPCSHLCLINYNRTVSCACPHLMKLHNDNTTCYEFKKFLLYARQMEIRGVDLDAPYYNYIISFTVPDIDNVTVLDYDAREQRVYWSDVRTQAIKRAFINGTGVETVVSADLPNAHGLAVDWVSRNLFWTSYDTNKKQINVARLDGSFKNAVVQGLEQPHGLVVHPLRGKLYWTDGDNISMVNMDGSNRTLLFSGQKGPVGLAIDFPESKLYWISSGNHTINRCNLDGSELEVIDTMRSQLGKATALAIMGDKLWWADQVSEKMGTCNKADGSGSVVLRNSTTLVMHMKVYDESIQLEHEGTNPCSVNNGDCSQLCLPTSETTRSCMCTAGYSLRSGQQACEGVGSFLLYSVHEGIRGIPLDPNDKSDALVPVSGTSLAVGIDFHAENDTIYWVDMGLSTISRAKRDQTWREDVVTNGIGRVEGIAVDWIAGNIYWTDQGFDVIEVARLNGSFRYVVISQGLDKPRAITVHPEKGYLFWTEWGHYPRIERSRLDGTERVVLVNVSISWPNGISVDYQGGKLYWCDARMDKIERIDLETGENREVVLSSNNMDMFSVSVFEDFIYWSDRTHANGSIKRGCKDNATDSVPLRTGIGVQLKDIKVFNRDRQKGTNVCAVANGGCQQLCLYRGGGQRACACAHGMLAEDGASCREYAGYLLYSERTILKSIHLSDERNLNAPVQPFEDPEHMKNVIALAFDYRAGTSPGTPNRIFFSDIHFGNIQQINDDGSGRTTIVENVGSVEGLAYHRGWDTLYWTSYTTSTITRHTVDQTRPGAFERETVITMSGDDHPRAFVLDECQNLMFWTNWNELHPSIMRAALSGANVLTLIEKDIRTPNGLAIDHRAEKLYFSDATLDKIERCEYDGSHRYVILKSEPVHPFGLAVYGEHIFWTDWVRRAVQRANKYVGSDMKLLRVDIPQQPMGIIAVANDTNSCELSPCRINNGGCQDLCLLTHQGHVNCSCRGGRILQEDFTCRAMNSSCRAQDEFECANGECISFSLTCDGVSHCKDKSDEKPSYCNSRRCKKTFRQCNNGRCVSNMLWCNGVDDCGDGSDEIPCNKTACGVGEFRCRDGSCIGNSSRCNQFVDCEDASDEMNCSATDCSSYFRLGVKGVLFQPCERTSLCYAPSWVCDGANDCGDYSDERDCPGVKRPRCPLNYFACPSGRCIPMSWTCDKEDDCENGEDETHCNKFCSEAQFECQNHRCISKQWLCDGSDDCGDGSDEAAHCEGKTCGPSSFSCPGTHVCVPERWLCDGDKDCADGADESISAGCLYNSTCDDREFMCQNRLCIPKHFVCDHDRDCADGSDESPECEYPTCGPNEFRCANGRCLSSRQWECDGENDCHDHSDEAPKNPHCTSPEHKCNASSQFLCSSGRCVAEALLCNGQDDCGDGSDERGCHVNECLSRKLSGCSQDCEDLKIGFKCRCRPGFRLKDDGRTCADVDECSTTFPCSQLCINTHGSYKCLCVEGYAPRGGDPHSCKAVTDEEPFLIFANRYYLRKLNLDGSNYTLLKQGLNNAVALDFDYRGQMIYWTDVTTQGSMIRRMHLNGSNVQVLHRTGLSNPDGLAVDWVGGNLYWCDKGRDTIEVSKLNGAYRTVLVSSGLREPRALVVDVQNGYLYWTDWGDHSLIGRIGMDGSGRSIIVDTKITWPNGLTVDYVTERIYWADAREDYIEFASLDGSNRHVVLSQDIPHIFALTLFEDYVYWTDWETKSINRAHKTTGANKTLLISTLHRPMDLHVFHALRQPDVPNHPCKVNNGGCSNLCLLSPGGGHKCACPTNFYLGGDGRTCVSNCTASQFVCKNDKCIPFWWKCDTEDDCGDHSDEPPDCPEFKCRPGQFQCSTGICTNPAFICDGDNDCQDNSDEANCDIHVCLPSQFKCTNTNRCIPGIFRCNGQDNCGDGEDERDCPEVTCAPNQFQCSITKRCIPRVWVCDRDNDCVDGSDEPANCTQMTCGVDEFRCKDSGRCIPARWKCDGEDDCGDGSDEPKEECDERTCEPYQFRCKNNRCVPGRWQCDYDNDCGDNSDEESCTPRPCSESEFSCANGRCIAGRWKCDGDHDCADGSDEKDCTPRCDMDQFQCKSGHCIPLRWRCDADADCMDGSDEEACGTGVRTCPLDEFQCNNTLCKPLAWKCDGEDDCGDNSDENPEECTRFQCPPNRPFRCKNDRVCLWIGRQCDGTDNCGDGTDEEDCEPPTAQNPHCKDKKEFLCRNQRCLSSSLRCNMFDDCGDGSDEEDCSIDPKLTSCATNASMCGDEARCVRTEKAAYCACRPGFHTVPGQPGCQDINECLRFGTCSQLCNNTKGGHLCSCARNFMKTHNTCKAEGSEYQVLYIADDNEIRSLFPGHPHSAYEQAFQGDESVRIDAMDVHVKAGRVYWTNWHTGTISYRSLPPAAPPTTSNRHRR

Row | formation of a complex of LRP1 and NMDA receptor [1] | increase in intracellular Ca2+ [2] | Substance | amount of α2-macroglobulin released from the glia cells [3]
1 | promotes |  | LP: reconstituted lipoprotein of POPC, cholesterol and recombinant human apolipoprotein E3 | 
2 |  | inhibits | E-LP: reconstituted lipoprotein of 1-palmitoyl-2-oleyl-glycerophosphocoline, cholesterol and recombinant human apolipoprotein E, molar ratio 100:10:1 or 100:0:1 | decrease
